Results as given in patent publication US12161750B2, “Antibiotic formulations for lower back pain” (Persica Pharmaceuticals Ltd., priority 2016, dated 2024).
≈ marks a conversion by molar mass, not a printed value.

Columns and labels:
Gram-positive bacteria = conditions: cited from earlier work
[1] = In vitro diffusion and release from poloxamer gel embedded in an agar disc (HPLC); assay type: physicochemical; conditions: 100 microliters of poloxamer formulation embedded in an agar disc
Protocol: 100 microliters of poloxamer formulation were embedded in an agar disc. The release of loaded compound into media around the agar structure is measured. The assays mimic a disc containing a poloxamer injection. The mass of antibiotic released over 72 h was determined using high-performance liquid chromatography (HPLC).

S. aureus [2] = test: Sheep model of S. aureus intradiscal infection, therapeutic dosing; assay type: in vivo; conditions: for discs sterilized: one hour post infection
From the text: A sheep model of S. aureus intradiscal infection has been developed to test the in vivo efficacy of antibiotic formulations. Male Charollais or Suffolk cross sheep, approximately 35-40 kg+ at the start of the study were housed according to Home Office guidelines under the Animals (Scientific Procedures) Act 1986 and acclimatised for at least 7 days with straw bedding and access to water. They were fed a Sheep concentrate diet without added antibiotics with additional forage (hay/straw) provided.
The bacterial inoculum (ATCC 29213) is prepared from frozen glycerol/phosphate-buffered saline stock at 2.5×10^6 CFU/ml by dilution to 2×10^4 CFU/ml:
In a therapeutic model, each sheep is anesthetised and given four 0.05 ml (target volume) intradiscal Injections at L1/L2, L2/L3, L3/L4 and L4/5 of S. aureus inoculum (1×10^3 cells/disc), one injection per disc.
(§1) Approximately 1 hour, or at another selected time, after the first injection, each sheep is given a second injection of the test formulation or control formulation. Each disc that was previously successfully injected with bacteria is given a 0.1 ml (target volume) intradiscal injection. As part of the anaesthesia the animal is given analgesics (intra-muscular) in the form of meloxicam at the recommended dosage. This analgesic may be repeated if considered necessary by the named veterinary surgeon. In a prophylactic model, the order of administrations is reversed such that the first injection is a formulation of antibiotic or control and the second injection contains the bacterial inoculum. The time between administration of the antibiotic and bacteria may be hours, days, weeks or months.
A single 20G 3.5″ spinal needle is positioned directly into the edge of the nucleus pulposus of each disc. Following confirmation of positioning of the needles a second 25G 4.69″ needle primed with the dose solution is inserted into the first needle and the tip placed into the middle of the nucleus pulposus. Following confirmation of positioning of the second needles each disc is injected with the bacteria. The inner needles will then be removed. Just prior to the 1 hour post-dose bacteria time-point a new 25G 4.69″ needle, primed with the dose solution, is inserted into the 20G 3.5″ and positioned into the middle of the nucleus pulposus. The second treatment is dose given via this needle, 1 hour post the first dose.
Bacterial infection: A single 20G 3.5″ spinal needle is positioned directly into the edge of the nucleus pulposus of each disc. Following confirmation of positioning of the needles a second 25G 4.69″ needle primed with the dose solution is inserted into the first needle and the tip placed into the middle of the nucleus pulposus. Following confirmation of positioning of the second needles each disc is injected with the bacteria. The needles will then be removed. The animals are repositioned to access the other side of the spine.
Injection of formulation: A second 20G 3.5″ spinal needle is positioned directly into the edge of the nucleus pulposus on the opposite side to the first injection of each disc. Just prior to time-point for administration a new 25G 4.69″ needle, primed with the dose solution, is inserted into the 20G 3.5″ and positioned into the middle of the nucleus pulposus. The second treatment is dose given via this needle.
At set time-points post-dose the sheep is killed. The injected vertebrae discs are dissected out and the nucleus pulposus from each disc is removed. In addition, an extra untreated disc is sampled to provide control tissue. The disc is removed after all of the treated discs for the particular animal with care to ensure no contamination between control and treated samples.
The sheep intradiscal infection model of Example 1 was used to evaluate the in vivo efficacy of therapeutically dosed vancomycin.

[3] = system: MRSA (methicillin resistant Staphylococcus aureus); conditions: formulated with poloxamer 407, sustained local delivery to the infected ear; cited from earlier work
S. aureus [4] = test: Sheep model of S. aureus intradiscal infection, prophylactic dosing; assay type: in vivo; conditions: Example 3; 5 mg/disc on day 0, discreet infection with 10^3 S. aureus per disc on day 3, harvest 24 h after infection
Protocol: as §1
The order of the injections may be reversed such that the first injection is a formulation of antibiotic and the second injection contains the bacterial inoculum. The time between administration of the antibiotic and bacteria may be hours, days, weeks or months. The second injection may be co-localised or discreet e.g. injected on the same side of the disc as the first injection or injected on the other side of the disc to the first injection respectively.
Discs were treated with vancomycin (5 mg/disc) on day 0 and on day 3 were discreetly infected with 10^3 S. aureus per disc. […]

| SMILES | MIC (Gram-positive bacteria) | input antibiotic accounted for (released) after 72 h [1] | discs sterilized (S. aureus [2]; Example 2, discreet dosing, 5 mg vancomycin/disc) | discs sterilized (S. aureus [2]; Example 2, discreet dosing, 20 mg vancomycin/disc) | reduction in average bacterial burden (S. aureus [2]; Example 2, discrete dosing groups) | discs sterilized (S. aureus [2]; Example 2, vancomycin in Omnipaque with 0.5% hyaluronic acid, co-localised dosing, within 24 h) | sterile discs (S. aureus [2]; Example 9, discrete dosing) | reduction in average disc bacterial burden (S. aureus [2]; Example 9, discrete dosing from the other side of the disc) | effect on MRSA otitis media [3] | average reduction in bacterial burden (S. aureus [4]) |
| --- | --- | --- | --- | --- | --- | --- | --- | --- | --- | --- |
| CC(=O)NC[C@H]1CN(c2ccc(N3CCOCC3)c(F)c2)C(=O)O1 [Linezolid] | 4 µg/mL (≈ 11.9 µM) | 57% |  |  |  |  |  |  |  |  |
| CN[C@H](CC(C)C)C(=O)N[C@H]1C(=O)N[C@@H](CC(N)=O)C(=O)N[C@H]2C(=O)N[C@H]3C(=O)N[C@H](C(=O)N[C@H](C(=O)O)c4cc(O)cc(O)c4-c4cc3ccc4O)[C@H](O)c3ccc(c(Cl)c3)Oc3cc2cc(c3O[C@@H]2O[C@H](CO)[C@@H](O)[C@H](O)[C@H]2O[C@H]2C[C@](C)(N)[C@H](O)[C@H](C)O2)Oc2ccc(cc2Cl)[C@H]1O [Vancomycin] |  | 92% | 5 of 7 | 3 of 7 | ≤ 3 log10 | all the discs were effectively sterilized | 3 of 8 | did not significantly reduce average bacterial disc burden | completely cures the otitis media caused by MRSA infection | > 3 log10 |
